In data set [1] the test system is J774.A1. Kind of data set: Cytotoxicity against mouse J774A.1 cells. The format is cell-based.
In data set [2] the test system is J774.A1. Put plainly: Inhibition of LPS-induced TNFalpha production in mouse J774A.1 cells. The format is functional, cell-based.

pIC50: −log10 of the molar value. Active and inactive are the calls of the source. The calls are words filed in the database; no cut-off is given here.

With `CC[C@@H](C(C)C)[C@@H](O)[C@H](O)[C@@H](C)[C@H]1CC[C@H]2[C@@H]3CC(=O)[C@@]4(O)C[C@@H](Br)CC[C@]4(C)[C@H]3CC[C@]12C`, the Activity entry in the data set with J774.A1 [1] was “Toxic”.

Regarding `CC[C@@H](C(C)C)[C@H](O)[C@@H](O)[C@@H](C)[C@H]1CC[C@H]2[C@@H]3CC(=O)[C@@]4(O)C[C@@H](O)CC[C@]4(C)[C@H]3CC[C@]12C`, the pIC50 with J774.A1 [2] is 7.74.

Take `CC[C@@H](C(C)C)[C@H](O)[C@@H](O)[C@@H](C)[C@H]1CC[C@H]2[C@@H]3CC=C4C[C@@H](Br)CC[C@]4(C)[C@H]3CC[C@]12C`: the pIC50 with J774.A1 [2] was 6.84. Same read-out and setting: as for `C[C@]12CC[C@H](O)CC1=CC[C@@H]1[C@@H]2CC[C@]2(C)C(=O)CC[C@@H]12` [PRASTERONE], the figure is 6.85. Turning to `C[C@@H]1C[C@H]2[C@@H]3CCC4=CC(=O)C=C[C@]4(C)[C@@]3(F)[C@@H](O)C[C@]2(C)[C@@]1(O)C(=O)CO` [DEXAMETHASONE], in the data set with J774.A1 [2], the pIC50 was 7.32. With `CC[C@@H](C(C)C)[C@H](O)[C@@H](O)[C@@H](C)[C@H]1CC[C@H]2[C@@H]3CC=C4C[C@@H](Cl)CC[C@]4(C)[C@H]3CC[C@]12C`, the result with J774.A1 [2] was inactive. In the case of `CC[C@@H](C(C)C)[C@@H](O)[C@H](O)[C@@H](C)[C@H]1CC[C@H]2[C@@H]3CC(=O)[C@@]4(O)C[C@@H](F)CC[C@]4(C)[C@H]3CC[C@]12C`, the Activity entry in the data set on J774.A1 [1] is given as “Toxic”.

As for `C[C@]12CC[C@H]3[C@@H](CC(=O)[C@@]4(O)C[C@@H](O)CC[C@]34C)[C@@H]1CCC2=O`, the pIC50 with J774.A1 [2] is 6.96.

In the data set on J774.A1 [2], `CC[C@@H](C(C)C)[C@H](O)[C@@H](O)[C@@H](C)[C@H]1CC[C@H]2[C@@H]3CC=C4C[C@@H](O)CC[C@]4(C)[C@H]3CC[C@]12C` showed a pIC50 of 7.46.

With `CC[C@@H](C(C)C)[C@H](O)[C@@H](O)[C@@H](C)[C@H]1CC[C@H]2[C@@H]3CC=C4C[C@@H](F)CC[C@]4(C)[C@H]3CC[C@]12C`, in the data set on J774.A1 [2], the result was inactive.

In turn, `CC[C@@H](C(C)C)[C@H](O)[C@@H](O)[C@@H](C)[C@H]1CC[C@H]2[C@@H]3CC(=O)[C@@]4(O)C[C@@H](F)CC[C@]4(C)[C@H]3CC[C@]12C` had a pIC50 with J774.A1 [2] of 7.33.

Take `C[C@]12CC[C@H]3[C@@H](CC(=O)[C@@]4(O)C[C@@H](Br)CC[C@]34C)[C@@H]1CCC(=O)O2`: the outcome with J774.A1 [2] was inactive.

Regarding `C[C@]12CC[C@H]3[C@@H](CC(=O)[C@@]4(O)C[C@@H](Br)CC[C@]34C)[C@@H]1CCC2=O`, the negative logarithm of the IC50 (pIC50) in the data set with J774.A1 [2] was 6.87. The compound `CC[C@@H](C(C)C)[C@H](O)[C@@H](O)[C@@H](C)[C@H]1CC[C@H]2[C@@H]3CC(=O)[C@@]4(O)C[C@@H](Br)CC[C@]4(C)[C@H]3CC[C@]12C` gave a pIC50 in the data set with J774.A1 [2] of 7.42. Against the preceding compound, the pIC50 is 0.55 log units higher.

What is called pIC50 is −log10 of the IC50, conventionally taken in molar units. Lower therefore signals a large IC50.
